Test results published in patent US20230406885A1, “CYCLIC PEPTIDES FOR TRAPPING INTERLEUKIN-1 BETA” (MERCK SHARP & DOHME LLC, priority 2022, published 2023).
*1 amine or outer side, *2 acyl side, *3 side chain or, on linkers, in order; H or OH if unused. Where a SMILES comes first, the peptide text is derived from it. [ ]: non-standard residue; d: D form. Trp(4-Cl)(βS-Me) = C[C@@H](c1c[nH]c2cccc(Cl)c12)[C@H](N)C(=O)O; Trp(βS-Me,4-F) = C[C@@H](c1c[nH]c2cccc(F)c12)[C@H](N)C(=O)O; Bip(4'-COOH) = N[C@@H](Cc1ccc(-c2ccc(C(=O)O)cc2)cc1)C(=O)O; Phe(4-COOH) = N[C@@H](Cc1ccc(C(=O)O)cc1)C(=O)O; Pro(4R-NH2) = N[C@H]1CN[C@H](C(=O)O)C1; X7 = O=C([C@H](CCN1CCOCC1)N[*:1])[*:2]; 1Nal = N[C@@H](Cc1cccc2ccccc12)C(=O)O; AEF = NCCOc1ccc(C[C@H](N)C(=O)O)cc1; hTyr = N[C@@H](CCc1ccc(O)cc1)C(=O)O; hPhe = N[C@@H](CCc1ccccc1)C(=O)O; Dap(Me2) = CN(C)C[C@H](N)C(=O)O; dDab = NCC[C@@H](N)C(=O)O; hSer = N[C@@H](CCO)C(=O)O; dNMeA = CN[C@H](C)C(=O)O; Dab = NCC[C@H](N)C(=O)O; Dap = NC[C@H](N)C(=O)O

Each compound was assayed against T1, Recombinant human IL-1β (Homo sapiens, UniProt P01584) (assay: IL-6 assay in MRC5 cells: inhibition of IL-1β induced IL-6 secretion (AlphaLISA)). Conditions: inhibition of IL-1β induced IL-6 secretion in MRC5 cells; read-out: MRC5 IC50.
T1 construct: purchased BioLegend 579404
T1 sequence (P01584 117-269): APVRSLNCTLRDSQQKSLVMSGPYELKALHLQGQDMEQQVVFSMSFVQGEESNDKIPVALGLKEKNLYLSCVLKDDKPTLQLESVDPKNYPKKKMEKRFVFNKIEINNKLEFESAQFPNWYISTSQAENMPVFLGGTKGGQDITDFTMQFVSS
Assay type: cell-based
Summary of the method: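 IL-1β at 2×EC80 in seeding medium (EMEM, 0.025% BSA) preincubated 1 h at ambient temperature with compound, then 3000 MRC5 cells/well added and incubated overnight at 37 °C, 5% CO2. IL-6 in conditioned medium quantified by AlphaLISA; IC50 from 4-parameter logistic fit.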
CC(=O)NCCOc1ccc(C[C@@H]2NC(=O)[C@H](CCc3ccc(O)cc3)NC(=O)[C@@H](C)NC(=O)[C@H](CCN3CCOCC3)NC(=O)[C@H](Cc3c[nH]c4ccccc34)NC(=O)[C@H](Cc3ccc(-c4ccc(C(=O)O)cc4)cc3)NC(=O)CNC(=O)[C@@H](C)N(C)C(=O)[C@H](CC(=O)O)NC(=O)[C@H]([C@@H](C)c3c[nH]c4cccc(Cl)c34)NC(=O)[C@@H]3C[C@@H](N)CN3C(=O)CNC(=O)[C@H](Cc3ccc(C(=O)O)cc3)NC(=O)[C@H](Cc3c[nH]c4ccccc34)NC2=O)cc1 [Example 141] (cyclo([AEF](Ac)W[Phe(4-COOH)]G[Pro(4R-NH2)][Trp(4-Cl)(βS-Me)]D[dNMeA]G[Bip(4'-COOH)]W[X7][dA][hTyr])) showed an IC50 of 0.177 nM.
CC(=O)NCCOc1ccc(C[C@@H]2NC(=O)[C@H](CCc3ccccc3)NC(=O)[C@@H](C)NC(=O)[C@H](CCN)NC(=O)[C@H](Cc3c[nH]c4ccccc34)NC(=O)[C@H](Cc3ccc(-c4ccc(C(=O)O)cc4)cc3)NC(=O)CNC(=O)[C@@H](C)N(C)C(=O)[C@H](CC(=O)O)NC(=O)[C@H]([C@@H](C)c3c[nH]c4cccc(Cl)c34)NC(=O)[C@@H]3C[C@@H](N)CN3C(=O)CNC(=O)[C@H](Cc3ccc(C(=O)O)cc3)NC(=O)[C@H](Cc3c[nH]c4ccccc34)NC2=O)cc1 [Example 142] (cyclo([AEF](Ac)W[Phe(4-COOH)]G[Pro(4R-NH2)][Trp(4-Cl)(βS-Me)]D[dNMeA]G[Bip(4'-COOH)]W[Dab][dA][hPhe])) gave an IC50 of 0.159 nM.
CC(=O)NCCOc1ccc(C[C@@H]2NC(=O)[C@H](CCc3ccc(O)cc3)NC(=O)[C@@H](C)NC(=O)[C@H](CCN)NC(=O)[C@H](Cc3c[nH]c4ccccc34)NC(=O)[C@H](Cc3ccc(-c4ccc(C(=O)O)cc4)cc3)NC(=O)CNC(=O)[C@@H](C)N(C)C(=O)[C@H](CC(=O)O)NC(=O)[C@H]([C@@H](C)c3c[nH]c4cccc(Cl)c34)NC(=O)[C@@H]3C[C@@H](N)CN3C(=O)CNC(=O)[C@H](Cc3ccc(C(=O)O)cc3)NC(=O)[C@H](Cc3c[nH]c4ccccc34)NC2=O)cc1 [Example 143] (cyclo([AEF](Ac)W[Phe(4-COOH)]G[Pro(4R-NH2)][Trp(4-Cl)(βS-Me)]D[dNMeA]G[Bip(4'-COOH)]W[Dab][dA][hTyr])) gave an IC50 of 0.23 nM.
For CC(=O)NCCOc1ccc(C[C@@H]2NC(=O)[C@H](CCc3ccccc3)NC(=O)[C@@H](C)NC(=O)[C@H](CN)NC(=O)[C@H](Cc3c[nH]c4ccccc34)NC(=O)[C@H](Cc3ccc(-c4ccc(C(=O)O)cc4)cc3)NC(=O)CNC(=O)[C@@H](C)N(C)C(=O)[C@H](CC(=O)O)NC(=O)[C@H]([C@@H](C)c3c[nH]c4cccc(Cl)c34)NC(=O)[C@@H]3C[C@@H](N)CN3C(=O)CNC(=O)[C@H](Cc3ccc(C(=O)O)cc3)NC(=O)[C@H](Cc3c[nH]c4ccccc34)NC2=O)cc1 [Example 144] (cyclo([AEF](Ac)W[Phe(4-COOH)]G[Pro(4R-NH2)][Trp(4-Cl)(βS-Me)]D[dNMeA]G[Bip(4'-COOH)]W[Dap][dA][hPhe])), the IC50 was 0.0749 nM.
With CC(=O)NCCOc1ccc(C[C@@H]2NC(=O)[C@H](CCc3ccc(O)cc3)NC(=O)[C@@H](C)NC(=O)[C@H](CN)NC(=O)[C@H](Cc3c[nH]c4ccccc34)NC(=O)[C@H](Cc3ccc(-c4ccc(C(=O)O)cc4)cc3)NC(=O)CNC(=O)[C@@H](C)N(C)C(=O)[C@H](CC(=O)O)NC(=O)[C@H]([C@@H](C)c3c[nH]c4cccc(Cl)c34)NC(=O)[C@@H]3C[C@@H](N)CN3C(=O)CNC(=O)[C@H](Cc3ccc(C(=O)O)cc3)NC(=O)[C@H](Cc3c[nH]c4ccccc34)NC2=O)cc1 [Example 145] (cyclo([AEF](Ac)W[Phe(4-COOH)]G[Pro(4R-NH2)][Trp(4-Cl)(βS-Me)]D[dNMeA]G[Bip(4'-COOH)]W[Dap][dA][hTyr])) the IC50 was 0.0748 nM.
For CC(=O)NCCOc1ccc(C[C@@H]2NC(=O)[C@H](CCc3ccc(O)cc3)NC(=O)[C@@H](C)NC(=O)[C@H](CN(C)C)NC(=O)[C@H](Cc3c[nH]c4ccccc34)NC(=O)[C@H](Cc3ccc(-c4ccc(C(=O)O)cc4)cc3)NC(=O)CNC(=O)[C@@H](C)N(C)C(=O)[C@H](CC(=O)O)NC(=O)[C@H]([C@@H](C)c3c[nH]c4cccc(Cl)c34)NC(=O)[C@@H]3C[C@@H](N)CN3C(=O)CNC(=O)[C@H](Cc3ccc(C(=O)O)cc3)NC(=O)[C@H](Cc3c[nH]c4ccccc34)NC2=O)cc1 [Example 146] (cyclo([AEF](Ac)W[Phe(4-COOH)]G[Pro(4R-NH2)][Trp(4-Cl)(βS-Me)]D[dNMeA]G[Bip(4'-COOH)]W[Dap(Me2)][dA][hTyr])), the IC50 was 0.114 nM.
In the case of COCC[C@@H]1NC(=O)[C@H](Cc2c[nH]c3ccccc23)NC(=O)[C@H](Cc2ccc(-c3ccc(C(=O)O)cc3)cc2)NC(=O)CNC(=O)[C@@H](C)N(C)C(=O)[C@H](CC(=O)O)NC(=O)[C@H]([C@@H](C)c2c[nH]c3cccc(Cl)c23)NC(=O)[C@@H]2C[C@@H](N)CN2C(=O)CNC(=O)[C@H](Cc2ccc(C(=O)O)cc2)NC(=O)[C@H](Cc2c[nH]c3ccccc23)NC(=O)[C@H](Cc2ccc(OCCNC(C)=O)cc2)NC(=O)[C@H](CCc2ccc(O)cc2)NC(=O)[C@@H](C)NC1=O [Example 147] (cyclo([AEF](Ac)W[Phe(4-COOH)]G[Pro(4R-NH2)][Trp(4-Cl)(βS-Me)]D[dNMeA]G[Bip(4'-COOH)]W[hSer](Me)[dA][hTyr])), the IC50 is reported as 0.0926 nM.
Work on CC(=O)NCCOc1ccc(C[C@@H]2NC(=O)[C@H](CCc3ccc(O)cc3)NC(=O)[C@@H](C)NC(=O)[C@H](CC(C)C)NC(=O)[C@H](Cc3c[nH]c4ccccc34)NC(=O)[C@H](Cc3ccc(-c4ccc(C(=O)O)cc4)cc3)NC(=O)CNC(=O)[C@@H](C)N(C)C(=O)[C@H](CC(=O)O)NC(=O)[C@H]([C@@H](C)c3c[nH]c4cccc(Cl)c34)NC(=O)[C@@H]3C[C@@H](N)CN3C(=O)CNC(=O)[C@H](Cc3ccc(C(=O)O)cc3)NC(=O)[C@H](Cc3c[nH]c4ccccc34)NC2=O)cc1 [Example 148] (cyclo([AEF](Ac)W[Phe(4-COOH)]G[Pro(4R-NH2)][Trp(4-Cl)(βS-Me)]D[dNMeA]G[Bip(4'-COOH)]WL[dA][hTyr])) yielded an IC50 of 0.0483 nM.
CC(=O)NCCOc1ccc(C[C@@H]2NC(=O)[C@H](CCc3ccc(O)cc3)NC(=O)[C@@H](CCN)NC(=O)[C@H](CC(C)C)NC(=O)[C@H](Cc3c[nH]c4ccccc34)NC(=O)[C@H](Cc3ccc(-c4ccc(C(=O)O)cc4)cc3)NC(=O)CNC(=O)[C@@H](C)N(C)C(=O)[C@H](CC(=O)O)NC(=O)[C@H]([C@@H](C)c3c[nH]c4cccc(Cl)c34)NC(=O)[C@@H]3C[C@@H](N)CN3C(=O)CNC(=O)[C@H](Cc3ccc(C(=O)O)cc3)NC(=O)[C@H](Cc3c[nH]c4ccccc34)NC2=O)cc1 [Example 149] (cyclo([AEF](Ac)W[Phe(4-COOH)]G[Pro(4R-NH2)][Trp(4-Cl)(βS-Me)]D[dNMeA]G[Bip(4'-COOH)]WL[dDab][hTyr])) was tested, and the IC50 was 0.81 nM.
CC(=O)NCCOc1ccc(C[C@@H]2NC(=O)[C@H](CCc3ccccc3)NC(=O)[C@@H](C)NC(=O)[C@H](CO)NC(=O)[C@H](Cc3c[nH]c4ccccc34)NC(=O)[C@H](Cc3ccc(-c4ccc(C(=O)O)cc4)cc3)NC(=O)CNC(=O)[C@@H](C)N(C)C(=O)[C@H](CC(=O)O)NC(=O)[C@H]([C@@H](C)c3c[nH]c4cccc(Cl)c34)NC(=O)[C@@H]3C[C@@H](N)CN3C(=O)CNC(=O)[C@H](Cc3ccc(C(=O)O)cc3)NC(=O)[C@H](Cc3c[nH]c4ccccc34)NC2=O)cc1 [Example 150] (cyclo([AEF](Ac)W[Phe(4-COOH)]G[Pro(4R-NH2)][Trp(4-Cl)(βS-Me)]D[dNMeA]G[Bip(4'-COOH)]WS[dA][hPhe])) showed an IC50 of 0.0633 nM.
With CC(=O)NCCOc1ccc(C[C@@H]2NC(=O)[C@H](CCc3ccc(O)cc3)NC(=O)[C@@H](C)NC(=O)[C@H](CO)NC(=O)[C@H](Cc3c[nH]c4ccccc34)NC(=O)[C@H](Cc3ccc(-c4ccc(C(=O)O)cc4)cc3)NC(=O)CNC(=O)[C@@H](C)N(C)C(=O)[C@H](CC(=O)O)NC(=O)[C@H]([C@@H](C)c3c[nH]c4cccc(Cl)c34)NC(=O)[C@@H]3C[C@@H](N)CN3C(=O)CNC(=O)[C@H](Cc3ccc(C(=O)O)cc3)NC(=O)[C@H](Cc3c[nH]c4ccccc34)NC2=O)cc1 [Example 151] (cyclo([AEF](Ac)W[Phe(4-COOH)]G[Pro(4R-NH2)][Trp(4-Cl)(βS-Me)]D[dNMeA]G[Bip(4'-COOH)]WS[dA][hTyr])) the IC50 was 0.0759 nM.
COC[C@@H]1NC(=O)[C@H](Cc2c[nH]c3ccccc23)NC(=O)[C@H](Cc2ccc(-c3ccc(C(=O)O)cc3)cc2)NC(=O)CNC(=O)[C@@H](C)N(C)C(=O)[C@H](CC(=O)O)NC(=O)[C@H]([C@@H](C)c2c[nH]c3cccc(Cl)c23)NC(=O)[C@@H]2C[C@@H](N)CN2C(=O)CNC(=O)[C@H](Cc2ccc(C(=O)O)cc2)NC(=O)[C@H](Cc2c[nH]c3ccccc23)NC(=O)[C@H](Cc2ccc(OCCNC(C)=O)cc2)NC(=O)[C@H](CCc2ccccc2)NC(=O)[C@@H](C)NC1=O [Example 152] (cyclo([AEF](Ac)W[Phe(4-COOH)]G[Pro(4R-NH2)][Trp(4-Cl)(βS-Me)]D[dNMeA]G[Bip(4'-COOH)]WS(Me)[dA][hPhe])) showed an IC50 of 0.06 nM.
For COC[C@@H]1NC(=O)[C@H](Cc2c[nH]c3ccccc23)NC(=O)[C@H](Cc2ccc(-c3ccc(C(=O)O)cc3)cc2)NC(=O)CNC(=O)[C@@H](C)N(C)C(=O)[C@H](CC(=O)O)NC(=O)[C@H]([C@@H](C)c2c[nH]c3cccc(Cl)c23)NC(=O)[C@@H]2C[C@@H](N)CN2C(=O)CNC(=O)[C@H](Cc2ccc(C(=O)O)cc2)NC(=O)[C@H](Cc2c[nH]c3ccccc23)NC(=O)[C@H](Cc2ccc(OCCNC(C)=O)cc2)NC(=O)[C@H](CCc2ccc(O)cc2)NC(=O)[C@@H](C)NC1=O [Example 153] (cyclo([AEF](Ac)W[Phe(4-COOH)]G[Pro(4R-NH2)][Trp(4-Cl)(βS-Me)]D[dNMeA]G[Bip(4'-COOH)]WS(Me)[dA][hTyr])), the IC50 was 0.088 nM.
CC(=O)NCCOc1ccc(C[C@@H]2NC(=O)[C@H](CCc3ccc(O)cc3)NC(=O)[C@@H](C)NC(=O)[C@H](CCN)NC(=O)[C@H](Cc3cccc4ccccc34)NC(=O)[C@H](Cc3ccc(-c4ccc(C(=O)O)cc4)cc3)NC(=O)CNC(=O)[C@@H](C)N(C)C(=O)[C@H](CC(=O)O)NC(=O)[C@H]([C@@H](C)c3c[nH]c4cccc(F)c34)NC(=O)[C@@H]3C[C@@H](N)CN3C(=O)CNC(=O)[C@H](Cc3ccc(C(=O)O)cc3)NC(=O)[C@H](Cc3c[nH]c4ccccc34)NC2=O)cc1 [Example 154] (cyclo([AEF](Ac)W[Phe(4-COOH)]G[Pro(4R-NH2)][Trp(βS-Me,4-F)]D[dNMeA]G[Bip(4'-COOH)][1Nal][Dab][dA][hTyr])) gave an IC50 of 0.196 nM.
